This note sets out measurements from PubChem BioAssay AID2060902 (Molecular Pharmacology Branch, DTP, NCI, 2025).

This experiment deals with 485368-065-R3-J5-PDC spheroids with HUVEC/MSC, viability. Description: Anticancer human tumor 485368-065-R3-J5-PDC patient-derived pancreatic carcinoma cell line growth inhibition [RAS]. To be noted: for viability, T/C: stronger effect = lower value. The procedure, abridged: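 Tumour cells grown as complex spheroids with HUVEC endothelial cells and mesenchymal stem cells, treated with RAS pathway inhibitor combinations. Each agent spans half-log steps from near clinical Cmax, or 10 microM where Cmax is unknown.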

Molecules are shown by their SMILES. Several values for one entry are separate records, joined by “and”; a condition that tells them apart may be missing. Equal entries are not always repeated.
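Also: spheroids exposed to agents for seven days before readout.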

Consider `O=C(c1ccc(F)c(F)c1Nc1ccc(I)cc1F)N1CC(O)([C@@H]2CCCCN2)C1` + CCn1c(-c2cccnc2C(C)OC)c2c3cc(ccc31)N1CCOC(CC(NC(=O)C(C(C)C)N(C)C(=O)C3(F)CCN(C(=O)C#CC(C)(C)N(C)C)CC3)C(=O)N3CCCC(N3)C(=O)OCC(C)(C)C2)C1, for which the IC50 amounted to 58.6 nM (curve of first compound, second compound 0.000949 µM); 66.5 nM (curve of first compound, second compound 0.003 µM); 59.5 nM (curve of first compound, second compound 0.00949 µM); 54.5 nM (curve of first compound, second compound 0.03 µM); 65.5 nM (curve of first compound, second compound 0.0949 µM); 40.4 nM (curve of first compound, second compound 0.3 µM). Also, the viability, T/C is 101% (second compound 0.000949 µM, first compound 0.00316 µM); 78.4% (second compound 0.000949 µM, first compound 0.01 µM); 64.1% (second compound 0.000949 µM, first compound 0.0316 µM); 37.7% (second compound 0.000949 µM, first compound 0.1 µM); 26.4% (second compound 0.000949 µM, first compound 0.316 µM); 11.7% (second compound 0.000949 µM, first compound 1 µM). For the same compound, the viability, T/C was 97.3% (second compound 0.003 µM, first compound 0.00316 µM); 88.4% (second compound 0.003 µM, first compound 0.01 µM); 60.1% (second compound 0.003 µM, first compound 0.0316 µM); 40.7% (second compound 0.003 µM, first compound 0.1 µM); 31.5% (second compound 0.003 µM, first compound 0.316 µM); 13.9% (second compound 0.003 µM, first compound 1 µM). The viability, T/C runs as follows: (second compound 0.00949 µM, first compound 0.00316 µM) 87%; (second compound 0.00949 µM, first compound 0.01 µM) 73.6%; (second compound 0.00949 µM, first compound 0.0316 µM) 60.9%; (second compound 0.00949 µM, first compound 0.1 µM) 39.4%; (second compound 0.00949 µM, first compound 0.316 µM) 30.1%; (second compound 0.00949 µM, first compound 1 µM) 14%. The viability, T/C is 89.6% (second compound 0.03 µM, first compound 0.00316 µM); 76.8% (second compound 0.03 µM, first compound 0.01 µM); 62.5% (second compound 0.03 µM, first compound 0.0316 µM); 36.8% (second compound 0.03 µM, first compound 0.1 µM); 24% (second compound 0.03 µM, first compound 0.316 µM); 15% (second compound 0.03 µM, first compound 1 µM). For the same compound, the viability, T/C runs as follows: (second compound 0.0949 µM, first compound 0.00316 µM) 88.3%; (second compound 0.0949 µM, first compound 0.01 µM) 75.3%; (second compound 0.0949 µM, first compound 0.0316 µM) 64%; (second compound 0.0949 µM, first compound 0.1 µM) 39.8%; (second compound 0.0949 µM, first compound 0.316 µM) 28.5%; (second compound 0.0949 µM, first compound 1 µM) 10%. Also, the viability, T/C (second compound 0.3 µM, first compound 0.00316 µM) is 91.4%; the viability, T/C (second compound 0.3 µM, first compound 0.01 µM) is 74.7%; the viability, T/C (second compound 0.3 µM, first compound 0.0316 µM) is 51.1%; the viability, T/C (second compound 0.3 µM, first compound 0.1 µM) is 36.3%; the viability, T/C (second compound 0.3 µM, first compound 0.316 µM) was 23.5%; the viability, T/C (second compound 0.3 µM, first compound 1 µM) is 8.18%.
In the case of `CC(Nc1ccc2c(c1)OCCn1cc(N3C(=O)OCC3C(F)F)nc1-2)C(N)=O` (stereo unspecified), the viability, T/C runs as follows: (compound 0.0316 µM) 96.7% [middle of 4 runs]; (compound 0.1 µM) 90% [middle of 4 runs]; (compound 0.316 µM) 99.2% [middle of 4 runs]; (compound 1 µM) 82.1% [middle of 4 runs]; (compound 3.16 µM) 82% [middle of 4 runs]; (compound 10 µM) 58.4% [middle of 4 runs]. The IC50 (curve of compound) was more than 10000 nM.
`CC1(C)CCC(Nc2ncc(C(F)(F)F)c(-c3c[nH]c4c(P(C)(C)=O)c(C#N)ccc34)n2)CN1` (stereo unspecified): the viability, T/C is 41.7% [middle of 4 runs] (compound 0.03 µM), 38.6% [middle of 4 runs] (compound 0.0949 µM) and 39.7% [middle of 4 runs] (compound 0.3 µM).
With `C[C@@H](NC(=O)c1ncnc(N)c1Cl)c1ncc(C(=O)Nc2cc(C(F)(F)F)c(Cl)cn2)s1`, the viability, T/C is 114% (3×) and 115% (compound 0.0316 µM); 104% [middle of 4 runs] (compound 0.1 µM); 109% [middle of 4 runs] (compound 0.316 µM); 93.4% and 96.5% (2×) and 92.5% (compound 1 µM); 108% [middle of 4 runs] (compound 3.16 µM); 82.4% [middle of 4 runs] (compound 10 µM). Under “curve of compound”, the IC50 was more than 10000 nM.
With `CCc1c2c(nc3ccc(O)cc13)-c1cc3c(c(=O)n1C2)COC(=O)[C@]3(O)CC` + C=CC(=O)N1CCN(c2nc(OCC3CCCN3C)nc3c(F)c(-c4nc(N)cc(C)c4C(F)(F)F)c(Cl)cc23)C(C)C1, the IC50 (curve of first compound, second compound 0.00316 µM) is 1.96 nM; the IC50 (curve of first compound, second compound 0.01 µM) was 2.09 nM; the half-maximal inhibitory concentration (IC50) (curve of first compound, second compound 0.0316 µM) was 2.15 nM; the IC50 (curve of first compound, second compound 0.1 µM) came out at 2.06 nM; the IC50 (curve of first compound, second compound 0.316 µM) stood at 2.08 nM; the half-maximal inhibitory concentration (IC50) (curve of first compound, second compound 1 µM) worked out at 1.76 nM. The viability, T/C was 87.9% (second compound 0.00316 µM, first compound 0.000949 µM); 25.8% (second compound 0.00316 µM, first compound 0.003 µM); 15.8% (second compound 0.00316 µM, first compound 0.00949 µM); 6.75% (second compound 0.00316 µM, first compound 0.03 µM); 4.49% (second compound 0.00316 µM, first compound 0.0949 µM); 3.28% (second compound 0.00316 µM, first compound 0.3 µM). The viability, T/C was 90.6% (second compound 0.01 µM, first compound 0.000949 µM); 28.9% (second compound 0.01 µM, first compound 0.003 µM); 17.6% (second compound 0.01 µM, first compound 0.00949 µM); 7.17% (second compound 0.01 µM, first compound 0.03 µM); 3.98% (second compound 0.01 µM, first compound 0.0949 µM); 3.67% (second compound 0.01 µM, first compound 0.3 µM). Moreover, the viability, T/C by setting is: (second compound 0.0316 µM, first compound 0.000949 µM) 89.7%; (second compound 0.0316 µM, first compound 0.003 µM) 33.6%; (second compound 0.0316 µM, first compound 0.00949 µM) 13%; (second compound 0.0316 µM, first compound 0.03 µM) 6.26%; (second compound 0.0316 µM, first compound 0.0949 µM) 4.82%; (second compound 0.0316 µM, first compound 0.3 µM) 3.26%. Further, the viability, T/C by setting is: (second compound 0.1 µM, first compound 0.000949 µM) 85.4%; (second compound 0.1 µM, first compound 0.003 µM) 32.5%; (second compound 0.1 µM, first compound 0.00949 µM) 12.2%; (second compound 0.1 µM, first compound 0.03 µM) 6.25%; (second compound 0.1 µM, first compound 0.0949 µM) 4.43%; (second compound 0.1 µM, first compound 0.3 µM) 3.35%. Also, the viability, T/C runs as follows: (second compound 0.316 µM, first compound 0.000949 µM) 81.7%; (second compound 0.316 µM, first compound 0.003 µM) 34.7%; (second compound 0.316 µM, first compound 0.00949 µM) 15.1%; (second compound 0.316 µM, first compound 0.03 µM) 5.63%; (second compound 0.316 µM, first compound 0.0949 µM) 4.4%; (second compound 0.316 µM, first compound 0.3 µM) 3.28%. In addition, the viability, T/C by setting is: (second compound 1 µM, first compound 0.000949 µM) 74.6%; (second compound 1 µM, first compound 0.003 µM) 26.8%; (second compound 1 µM, first compound 0.00949 µM) 16.5%; (second compound 1 µM, first compound 0.03 µM) 5.78%; (second compound 1 µM, first compound 0.0949 µM) 5.14%; (second compound 1 µM, first compound 0.3 µM) 3.4%.

As a reminder, the IC50 is the point on the concentration scale where inhibition reaches its midpoint. The term viability, T/C denotes the result in the treated group divided by that in the control group, in per cent.
